The target in this assay is GDP-loaded KRAS G12D (Homo sapiens, UniProt P01116, G12D). Kind of assay: KRAS G12D Probe Displacement Assay. The following applies: KRAS G12D 0.5 nM, biotinylated probe 2 4 nM; Table 6 letters; read-out: KRAS G12D Probe Displacement Assay IC50 (class). Type of assay: binding.

Structures are written as SMILES. Some results are limits rather than exact numbers.

Chain of GDP-loaded KRAS G12D (P01116 1-188 isoform P01116-2 G12D): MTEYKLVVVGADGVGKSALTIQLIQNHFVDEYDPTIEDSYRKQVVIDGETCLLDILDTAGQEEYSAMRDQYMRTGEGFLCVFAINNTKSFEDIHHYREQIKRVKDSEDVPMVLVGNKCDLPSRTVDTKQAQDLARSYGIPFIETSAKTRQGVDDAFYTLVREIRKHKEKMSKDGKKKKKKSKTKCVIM

With `Nc1nc2c(-c3c(C(F)(F)F)cc4c(N5C6CNCC5C6)nc(OC[C@@]56CCCN5C[C@H](F)C6)nc4c3F)ccc(F)c2s1` [Example E127, 4-(4-(3,6-diazabicyclo[3.1.1]heptan-6-yl)-8-fluoro-2-(((2R,7aS)-2-fluorotetrahydro-1H-pyrrolizin-7a(5H)-yl)methoxy)-6-(trifluoromethyl)quinazolin-7-yl)-7-fluoro benzo[d]thiazol-2-amine], the IC50 was less than 50 nM. To `Nc1nc2c(-c3c(C(F)(F)F)cc4c(N5CC6CCC(C5)N6)nc(OC[C@H]5CNC(=O)CO5)nc4c3F)ccc(F)c2s1` [Example E179, (6R)-6-(((7-(2-amino-7-fluorobenzo[d]thiazol-4-yl)-4-(3,8-diazabicyclo[3.2.1]octan-3-yl)-8-fluoro-6-(trifluoromethyl)quinazolin-2-yl)oxy)methyl)morpholin-3-one] belongs less than 50 nM. On to `F[C@H]1CN2CCC[C@@]2(COc2nc(N3CC4CCC(C3)N4)c3cc(Cl)c(-n4ncc5cccc(Cl)c54)cc3n2)C1` [Example E136, 4-(3,8-diazabicyclo[3.2.1]octan-3-yl)-6-chloro-7-(7-chloro-1H-indazol-1-yl)-2-(((2R,7aS)-2-fluorotetrahydro-1H-pyrrolizin-7a(5H)-yl)methoxy)quinazoline], for which the IC50 was more than 1000 nM. To `Nc1nc2c(-c3c(C(F)(F)F)cc4c(N5CC6CCC(C5)N6)nc(OCC56COCC5C6)nc4c3F)ccc(F)c2s1` (centres unmarked) [Example E217, 4-(2-((3-oxabicyclo[3.1.0]hexan-1-yl)methoxy)-4-(3,8-diazabicyclo[3.2.1]octan-3-yl)-8-fluoro-6-(trifluoromethyl)quinazolin-7-yl)-7-fluorobenzo[d]thiazol-2-amine] belongs less than 50 nM. Under `Nc1nc2c(-c3c(C(F)(F)F)cc4c(N5CC6CCC(C5)N6)nc(OCCCC5COC5)nc4c3F)ccc(F)c2s1` [Example E161] stands less than 50 nM; under `Oc1cc(Cl)c(C2CC2)c(-c2c(Cl)cc3c(N4CC5CCC(C4)N5)nc(OC[C@@]45CCCN4C[C@H](F)C5)nc3c2F)c1` [Example E123, 3-(4-(3,8-diazabicyclo[3.2.1]octan-3-yl)-6-chloro-8-fluoro-2-(((2R,7aS)-2-fluorotetrahydro-1H-pyrrolizin-7a(5H)-yl)methoxy)quinazolin-7-yl)-5-chloro-4-cyclopropylphenol], less than 50 nM; under `CC1(COc2nc(N3CC4CCC(C3)N4)c3cc(C(F)(F)F)c(-c4ccc(F)c5sc(N)nc45)c(F)c3n2)CCOCC1` [Example E182, 4-(4-(3,8-diazabicyclo[3.2.1]octan-3-yl)-8-fluoro-2-((4-methyltetra hydro-2H-pyran-4-yl)methoxy)-6-(trifluoromethyl)quinazolin-7-yl)-7-fluorobenzo[d]thiazol-2-amine], less than 50 nM. To `Oc1cc(Cl)c(C(F)(F)F)c(-c2c(Cl)cc3c(N4CC5CCC(C4)N5)nc(OC[C@@]45CCCN4C[C@H](F)C5)nc3c2F)c1` [Example E105, 3-(4-(3,8-diazabicyclo[3.2.1]octan-3-yl)-6-chloro-8-fluoro-2-(((2R,7aS)-2-fluorotetrahydro-1H-pyrrolizin-7a(5H)-yl)methoxy)quinazolin-7-yl)-5-chloro-4-(trifluoromethyl)phenol] belongs less than 50 nM. Turning to `Nc1nc2c(-c3c(C(F)(F)F)cc4c(N5C6CNCC5COC6)nc(OC[C@@]56CCCN5C[C@H](F)C6)nc4c3F)ccc(F)c2s1` [Example E98], the half-maximal inhibitory concentration (IC50) is less than 50 nM.

With `Nc1nc2c(-c3c(C(F)(F)F)cc4c(N5CC6CCC(C5)N6)nc(OC5CCS(=O)(=O)CC5)nc4c3F)ccc(F)c2s1` [Example E160], the IC50 is less than 50 nM. Under `Nc1nc2c(-c3c(Cl)cc4c(N5CC6CCC(C5)N6)nc(OC[C@@]56CCCN5C[C@H](F)C6)nc4c3F)cc(Cl)cc2s1` [Example E140, 4-(4-(3,8-diazabicyclo[3.2.1]octan-3-yl)-6-chloro-8-fluoro-2-(((2R,7aS)-2-fluorotetrahydro-1H-pyrrolizin-7a(5H)-yl)methoxy)quinazolin-7-yl)-6-chlorobenzo [d]thiazol-2-amine] stands less than 50 nM.

Broadly, the IC50 is the point on the concentration scale where inhibition reaches its midpoint.

The values above are taken from patent US20240140957A1, “BRIDGED COMPOUNDS AS KRAS G12D INHIBITOR AND DEGRADER AND THE USE THEREOF” (BeiGene Switzerland GmbH, priority 2021, published 2024).
